Reference: patent publication US9072753B1, “Gargle method to reduce the duration of common cold symptoms” (priority 2001, dated 2015)
Entries after “also recorded” stand apart in the source; their conditions may differ. Like-named read-outs stand apart in the source and are kept apart here.

Columns and labels:
[1] = system: broad spectrum of viruses; conditions: cited from earlier work
myxoviruses = conditions: cited from earlier work
[2] = system: RNA-dependent DNA polymerases (reverse transcriptases) of both Moloney and Rauscher leukemia viruses; conditions: cited from earlier work
[3] = in vivo; cited from earlier work
cells in tissue culture = conditions: high concentrations; cited from earlier work
Rhinovirus 14 = assay: Antiviral activity testing against rhinovirus (Rhinovirus 14 in KB cells); assay type: cell-based; conditions: for Virus Inhibition: 4 values and above indicate excellent antiviral activity
[4] = system: Influenza A/Hong Kong/68 (H3N2); assay: Antiviral activity testing against influenza virus in MDCK cells; assay type: cell-based; conditions: Influenza A/Hong Kong/68 (H3N2) in MDCK cells; for Virus Inhibition: 4 values and above indicate excellent antiviral activity
Source text: Results of antiviral invitro testing performed at baylor college of medicine department of molecular virology & microbiology.

[5] = system: Madin Darby Canine Kidney (MDCK) cells; assay: Toxicity of materials in the influenza test (MDCK cells); assay type: cell-based; conditions: Table 2
common cold [6] = assay: Case examples, nonalcoholic mouthwash remedies in subjects with a cold; assay type: in vivo, human; conditions: single subject per example; 15 ml mouthwash three times a day for at least two days
Procedure: In order to facilitate a more complete understanding of the invention, a number of Examples are provided below. However, the scope of the invention is not limited to specific embodiments disclosed in these Examples, which are for purposes of illustration only. In each of the following Examples, the subjects were administered one tablespoon (15 ml) of remedy in a mouthwash formulation three times a day for at least two days comprising: […]

[7] = healthy HIV-negative humans; cited from earlier work
common cold [8] = conditions: after seven days; 37 zinc-treated subjects; cited from earlier work

Compound | Virus Inhibition (Rhinovirus 14) | Virus Inhibition [4] | Toxicity [5] | Toxicity (KB cells; human) | Recovery from the cold (common cold [6]) | other results
COC(=O)C1=CO[C@@H](C)[C@@H](C=O)[C@@H]1CC(=O)[O-].COC(=O)C1=CO[C@@H](C)[C@@H](C=O)[C@@H]1CC(=O)[O-].[Ca+2] [calcium elenolate] | – | – | – | – | – | Virucidal activity in vitro [1]: virucidal for a broad spectrum of viruses in vitro; Inactivation of myxoviruses (myxoviruses): inactivates all myxoviruses so far tested; Inhibition of reverse transcriptases [2]: inhibits; Tolerability in animals [3]: well tolerated; Toxicity to cells in tissue culture (cells in tissue culture): relatively nontoxic
OO [Hydrogen Peroxide] | 7 | 6 | 6 | 7 | – | –
O=C1O[C@H]([C@@H](O)CO)C(O)=C1O [Ascorbic Acid] | 4 | – | – | – | within one day; also recorded: within two days | –
CCCc1cc(=O)oc2c3c(c4c(c12)OC(C)(C)C=C4)O[C@H](C)[C@@H](C)[C@@H]3O [Calanolide A] | – | – | – | – | – | Safety and tolerability [7]: safe and well tolerated
O=C(O)CC(O)(CC(=O)O)C(=O)O [Citric Acid] | 6 | 6 | 6 | 6 | within three days; also recorded: within one day; also recorded: within four days; also recorded: within two days; also recorded: within ten days; also recorded: within five days | –
O=C(O)CC(O)C(=O)O (centres unmarked) [Malic Acid] | 6 | 6 | 6 | 6 | – | –
O=C([O-])O.[Na+] [Baking Soda] | 4 | 2 | 0 | – | within one day; also recorded: within two days; also recorded: within three days | Selective Inhibition (Rhinovirus 14): 2; Selective Inhibition [4]: 4; Toxicity (KB cells): 2
zinc | – | – | – | – | – | Subjects asymptomatic (common cold [8]): 86%
